In PubChem BioAssay (NCI) one finds TGI and GI50 data, which are given here for 10 molecules.

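How tested: cells in 96-well plates exposed to compound for 48 hours at five concentrations. Here, GI50 denotes the concentration required for 50% inhibition of growth. TGI is the concentration that stops growth completely.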

By TGI is commonly meant the concentration at which net growth stops. As a reminder, the GI50 is the concentration giving 50% growth inhibition.

Test systems include HCT-116 colon; NCI-H522 lung; NCI-H460 lung; HCT-15 colon; SN12C renal; A549 NSCLC; HOP-92 NSCLC; OVCAR-8 ovarian; SK-OV-3 ovarian; KM20L2 colon; M14 melanoma.
Holding throughout (assay): DTP human tumour cell line panel, 48 h

Regarding `O=CNc1cccc2c3c([nH]c12)CCCCCC3`, the concentration for total growth inhibition (TGI) in the experiment with HCT-116 colon, with NCI-H522 lung, in the experiment on NCI-H460 lung, with HCT-15 colon, in the experiment on SN12C renal and in the experiment with A549 NSCLC was greater than 100 µM in each case. Also, the TGI with HOP-92 NSCLC, with OVCAR-8 ovarian, with SK-OV-3 ovarian and with KM20L2 colon was greater than 100 µM each time.
As for `CCCCc1ccc2[n+](c1)C(C(=O)OCC)=PC2` (centres undefined), the TGI in the experiment on HCT-116 colon, in the experiment on NCI-H522 lung, with M14 melanoma, in the experiment on NCI-H460 lung, with HCT-15 colon and in the experiment on SN12C renal was greater than 100 µM in each case. Further, the concentration for total growth inhibition (TGI) with A549 NSCLC, in the experiment with HOP-92 NSCLC, in the experiment on OVCAR-8 ovarian and with SK-OV-3 ovarian was greater than 100 µM each time.
On to `Cc1cc(NS(=O)(=O)c2ccc(Nc3c4ccccc4nc4c(C(=O)NCCN(C)C)ccc(Cl)c34)cc2)no1`, for which the concentration for total growth inhibition (TGI) in the experiment with HCT-116 colon worked out at 15.5 µM; in the experiment with NCI-H522 lung, 3.86 µM; in the experiment on M14 melanoma, 17.6 µM; in the experiment with NCI-H460 lung, 11.4 µM; in the experiment with HCT-15 colon, 19.5 µM; in the experiment with SN12C renal, 16.8 µM. Further, the TGI stood at 17.3 µM in the experiment with A549 NSCLC, 14 µM with OVCAR-8 ovarian and 24 µM in the experiment with KM20L2 colon.
Turning to `COc1ccc(C(=O)Cc2cc(OC)ccc2OC)cc1`, the concentration for total growth inhibition (TGI) with HCT-116 colon, in the experiment on NCI-H522 lung, in the experiment with M14 melanoma, with NCI-H460 lung, in the experiment on HCT-15 colon and with SN12C renal was greater than 100 µM throughout. For the same molecule, the concentration for total growth inhibition (TGI) in the experiment with A549 NSCLC, with OVCAR-8 ovarian, in the experiment on SK-OV-3 ovarian and in the experiment with KM20L2 colon was greater than 100 µM each time.
On to `C=C1C(=O)O[C@H]2C1[C@H](OC(=O)/C(C)=C\COC(C)=O)C[C@]1(CO1)[C@@H]1[C@H](O)[C@H]3O[C@@]3(C)[C@@H]12` (some centres undefined), for which the concentration for total growth inhibition (TGI) is 26.5 µM in the experiment on HCT-116 colon; 22.8 µM with NCI-H522 lung; greater than 100 µM in the experiment with NCI-H460 lung; greater than 56.1 µM in the experiment with HCT-15 colon; greater than 57.1 µM in the experiment on SN12C renal; greater than 100 µM in the experiment with A549 NSCLC. The TGI in the experiment on HOP-92 NSCLC was 30.8 µM; with OVCAR-8 ovarian it was 99.5 µM; with SK-OV-3 ovarian, greater than 100 µM; with KM20L2 colon it was greater than 82.7 µM.
`O=C1c2ccccc2-c2ccc(NC(=O)C3CCCCC3C(=O)O)cc21` (centres undefined): the TGI in the experiment with HCT-116 colon, in the experiment on NCI-H522 lung, in the experiment with M14 melanoma, in the experiment with NCI-H460 lung, with HCT-15 colon and in the experiment with SN12C renal was greater than 100 µM in each case. Further, the TGI with A549 NSCLC, with HOP-92 NSCLC, in the experiment on OVCAR-8 ovarian and in the experiment with SK-OV-3 ovarian was greater than 100 µM in each case.
Consider `COc1cc(N=Nc2cccc(S(=O)(=O)O)c2)c(C)cc1N=Nc1ccc(/C=C/c2ccc(N=[N+]([O-])c3ccc(/C=C/c4ccc(N=Nc5cc(C)c(N=Nc6cccc(S(=O)(=O)O)c6)cc5OC)cc4)c(S(=O)(=O)O)c3)cc2S(=O)(=O)O)cc1`, for which the TGI in the experiment on HCT-116 colon, with NCI-H522 lung, in the experiment on NCI-H460 lung, with HCT-15 colon, with SN12C renal and in the experiment with A549 NSCLC was greater than 100 µM in each case. Further, the total growth inhibition concentration (TGI) in the experiment on HOP-92 NSCLC, in the experiment with OVCAR-8 ovarian, with SK-OV-3 ovarian and in the experiment with KM20L2 colon was greater than 100 µM throughout.
Take `COC(=O)C(C)N1C(=O)c2ccccc2I1OC(C)=O` (centres undefined): the GI50 in the experiment on NCI-H522 lung was 39.8 µM; with NCI-H460 lung, greater than 100 µM; in the experiment on HCT-15 colon, 37.9 µM; with SN12C renal, 31.4 µM; in the experiment with A549 NSCLC, greater than 100 µM; with HOP-92 NSCLC, greater than 100 µM. Moreover, the GI50 in the experiment with OVCAR-8 ovarian and in the experiment on SK-OV-3 ovarian was greater than 100 µM in each case. Moreover, the TGI with NCI-H522 lung, in the experiment with NCI-H460 lung, in the experiment with HCT-15 colon, in the experiment with SN12C renal, in the experiment with A549 NSCLC and with HOP-92 NSCLC was greater than 100 µM in each case. The TGI with OVCAR-8 ovarian and with SK-OV-3 ovarian was greater than 100 µM throughout.
On to `CCOC(=O)C1C(c2cc(OC)c(O)c(OC)c2)c2cc3c(cc2OC1(C)O)OCO3` (centres undefined), for which the TGI in the experiment with HCT-116 colon, in the experiment with M14 melanoma, with NCI-H460 lung, with HCT-15 colon, in the experiment with SN12C renal and with A549 NSCLC was greater than 100 µM in each case. Also, the TGI in the experiment with HOP-92 NSCLC was 57 µM; with OVCAR-8 ovarian, greater than 100 µM; with SK-OV-3 ovarian, greater than 100 µM; in the experiment on KM20L2 colon it was greater than 100 µM.
Turning to `CC(C)=CCN(N=O)c1ncnc2nc[nH]c12`, the TGI with HCT-116 colon, in the experiment with NCI-H522 lung, with M14 melanoma, with NCI-H460 lung, in the experiment with SN12C renal and in the experiment with A549 NSCLC was greater than 100 µM throughout. For the same molecule, the concentration for total growth inhibition (TGI) with HOP-92 NSCLC, in the experiment with OVCAR-8 ovarian and in the experiment on SK-OV-3 ovarian was greater than 100 µM in each case.
